Usually MIC stands for the lowest concentration that inhibits growth of the organism. What is called IC50 is the concentration that gives 50% inhibition.

Results on two compounds are retold here after EP4745118A1, “HYDROXAMIC ACID COMPOUND OR PHARMACEUTICALLY ACCEPTABLE SALT THEREOF, AND USE THEREOF AND PREPARATION METHOD THEREFOR” (priority 2023, dated 2025).

What all share (type): cell-based
For one test, the system named is Pantoea agglomerans. Description: In vitro antibacterial activity, agar dilution method (MIC). Particulars: ATCC27993; Pantoea agglomerans ATCC 27993; agar dilution, 35°C, 18 hours; read-out: MIC. In outline:
(§1)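 Agar dilution per CLSI; ~10^4 CFU/spot (0.5 McF, 1:10 in broth); 35°C, 18 h; MIC = lowest conc. with no growth.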

The subject of another test is Proteus mirabilis. The test is described as above. Particulars: ATCC49565; Proteus mirabilis ATCC 49565; agar dilution, 35°C, 18 hours; read-out: MIC. In outline:
as §1
In general terms: Agar dilution tests growth on a series of plates holding different concentrations.

A further test relates to Pseudomonas aeruginosa. Described as above. Particulars: Pseudomonas aeruginosa PAO1; agar dilution, 35°C, 18 hours; read-out: MIC. In outline: as §1
For the next test, the system named is Enterobacter aerogenes. Described as above. Particulars: Klebsiella aerogenes, ATCC13048; Enterobacter aerogenes ATCC 13048; agar dilution, 35°C, 18 hours; read-out: MIC. In outline:
as §1

The subject of another test is Klebsiella pneumoniae. Described as above. Particulars: Klebsiella pneumoniae, agar dilution, 35°C, 18 hours, read-out: MIC. In outline:
as §1

The next test concerns Escherichia coli. The description is as above. Particulars: Escherichia coli, agar dilution, 35°C, 18 hours, read-out: MIC. In outline: as §1
The test system of the next test is Proteus vulgaris. The description is as above. Particulars: ATCC29905; Proteus vulgaris ATCC 29905; agar dilution, 35°C, 18 hours; read-out: MIC. In outline:
as §1

The test system of another test is Citrobacter freundii. Described as above. Particulars: ATCC43864; Citrobacter freundii ATCC 43864; agar dilution, 35°C, 18 hours; read-out: MIC. In outline:
as §1

The next test deals with Serratia marcescens. The test is described as above. Particulars: ATCC21074; Serratia marcescens ATCC 21074; agar dilution, 35°C, 18 hours; read-out: MIC. In outline:
as §1

The subject of another test is Vero cells. Description: Vero cytotoxicity (CCK-8). Particulars: Chlorocebus sabaeus; Vero cells, 24 hours incubation, CCK-8; read-out: IC50. The protocol:
All liquid was transferred to a 15 mL centrifuge tube and centrifuged at 800 rpm for 5 min. […] A cell counter was used to measure cell density. Cells were inoculated at 100 µL and a density of 3 × 10^5/mL into a 96-well plate, with 6 replicates per group, and incubated at 37°C for 4 hours to allow cells to adhere to the wall. The compound was twofold continuously diluted with PBS, and 10 µL of the compound with the corresponding concentration was added to the 96-well plate, and shaken and mixed well on a shaker, and then incubated at 37°C for 24 hours. 10 µL of CCK-8 reagent was added to the 96-well plate, mixed thoroughly on a shaker, and incubated at 37°C for 2 hours. A microplate reader was used to measure the absorbance at 450 nm wavelength, and the inhibition rate of the compound on Vero cells was calculated. Table 5 Vero cytotoxicity of 4 optical isomers and control drug

The test system of a further test is Shigella flexneri. As to the kind of experiment: In vitro antibacterial activity, agar dilution method (MIC). Particulars: ATCC12022, Shigella flexneri ATCC 12022, 35°C, 18 hours, read-out: MIC. In outline: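 Agar dilution per CLSI in MH agar, final drug 0.03–128 µg/mL in twofold steps. About 10^4 CFU spotted per site, 35°C for 18 hours; MIC taken as lowest concentration with no growth.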

[1] abbreviates: 18 h, Klebsiella pneumoniae 09-20 (mcr-1).
Setting [2] is: 18 h, Klebsiella pneumoniae 17-R27 (CRE).
Setting [3] is: 18 h, Klebsiella pneumoniae 18-8 (ESBLs-producing).
[4] abbreviates: ATCC700603, 18 h, Klebsiella pneumoniae ATCC 700603 (ESBLs-producing).
The mark [5] stands for this setting: ATCCBAA2146, 18 h, Klebsiella pneumoniae ATCC BAA-2146 (CRE, NDM-1-producing).
Where [6] appears, read: 18 h, Escherichia coli 13-43 (mcr-1).
Setting [7] is: 18 h, Escherichia coli 17-R28 (CRE, NDM-1-producing).
[8] abbreviates: ATCC2469, 18 h, Escherichia coli ATCC 2469 (CRE, NDM-1-producing).
Setting [9] is: ATCC35218, 18 h, Escherichia coli ATCC 35218 (ESBLs-producing).

Values after ≈ are worked out from the molar mass of the structure shown. Where two headings read alike, the source gives them in different places.

As for `COC[C@H]1C[C@H]1C#CC#Cc1ccc(C(=O)N[C@H](C(=O)NO)C(C)(C)N)cc1` [Ic, N-(S)-3-amino-1-hydroxyamino-3-methyl-1-oxobutan-2-yl-4-[[(1R,2S)-2-(methoxymethylene)cyclopropyl]but-1,3-diynyl]benzamide], the MIC stood at 0.5 µg/mL (≈ 1.3 µM) with Pantoea agglomerans; 0.5 µg/mL (≈ 1.3 µM) with Proteus mirabilis; 0.5 µg/mL (≈ 1.3 µM) in the test with Pseudomonas aeruginosa; 0.5 µg/mL (≈ 1.3 µM) in the test with Enterobacter aerogenes; 0.25 µg/mL (≈ 0.652 µM) in the test on Klebsiella pneumoniae (setting [1]); 0.5 µg/mL (≈ 1.3 µM) with Klebsiella pneumoniae (setting [2]). The MIC with Klebsiella pneumoniae (setting [3]) worked out at 0.06 µg/mL (≈ 0.156 µM); in the test with Klebsiella pneumoniae (setting [4]), 1 µg/mL (≈ 2.61 µM); in the test with Klebsiella pneumoniae (setting [5]), 2 µg/mL (≈ 5.22 µM); in the test with Escherichia coli (setting [6]), 0.25 µg/mL (≈ 0.652 µM); in the test with Escherichia coli (setting [7]), 0.12 µg/mL (≈ 0.313 µM); in the test on Escherichia coli (setting [8]) it was 0.12 µg/mL (≈ 0.313 µM). The MIC with Escherichia coli (setting [9]) amounted to 0.12 µg/mL (≈ 0.313 µM); in the test with Proteus vulgaris, 0.12 µg/mL (≈ 0.313 µM); with Citrobacter freundii, 0.25 µg/mL (≈ 0.652 µM); in the test on Serratia marcescens it was 0.25 µg/mL (≈ 0.652 µM); in the test on Shigella flexneri it was 0.06 µg/mL (≈ 0.156 µM). In addition, the IC50 with Vero cells is more than 128 µM.

Turning to `COC[C@@H]1C[C@@H]1C#CC#Cc1ccc(C(=O)N[C@H](C(=O)NO)C(C)(C)N)cc1` [Id, N-(S)-3-amino-1-hydroxyamino-3-methyl-1-oxobutan-2-yl-4-[[(1S,2R)-2-(methoxymethylene)cyclopropyl]but-1,3-diynyl]benzamide], the minimum inhibitory concentration (MIC) in the test on Pantoea agglomerans came out at 1 µg/mL (≈ 2.61 µM); in the test with Proteus mirabilis, 1 µg/mL (≈ 2.61 µM); in the test with Pseudomonas aeruginosa, 1 µg/mL (≈ 2.61 µM); in the test with Enterobacter aerogenes, 0.5 µg/mL (≈ 1.3 µM); in the test on Klebsiella pneumoniae (setting [1]), 0.5 µg/mL (≈ 1.3 µM); in the test on Klebsiella pneumoniae (setting [2]) it was 0.5 µg/mL (≈ 1.3 µM). The MIC in the test with Klebsiella pneumoniae (setting [3]) stood at 0.5 µg/mL (≈ 1.3 µM); in the test on Klebsiella pneumoniae (setting [4]) it was 2 µg/mL (≈ 5.22 µM); with Klebsiella pneumoniae (setting [5]), 2 µg/mL (≈ 5.22 µM); in the test on Escherichia coli (setting [6]) it was 0.5 µg/mL (≈ 1.3 µM); with Escherichia coli (setting [7]), 0.25 µg/mL (≈ 0.652 µM); with Escherichia coli (setting [8]) it was 0.25 µg/mL (≈ 0.652 µM). Also, the MIC in the test with Escherichia coli (setting [9]) was 0.25 µg/mL (≈ 0.652 µM); with Proteus vulgaris, 0.12 µg/mL (≈ 0.313 µM); with Citrobacter freundii, 0.25 µg/mL (≈ 0.652 µM); in the test on Serratia marcescens, 0.25 µg/mL (≈ 0.652 µM); in the test with Shigella flexneri, 0.06 µg/mL (≈ 0.156 µM). Also, the IC50 in the test on Vero cells was more than 128 µM.
